Data as given in patent publication US9765056B2, “Indole and pyrrole compounds, a process for their preparation and pharmaceutical compositions containing them” (LES LABORATOIRES SERVIER, priority 2013, dated 2017).
Structures can show the parent of a compound that is named as a salt.

Assays:
[1] = test system: RS4;11 leukaemia tumour line; assay: In vitro cytotoxicity, Microculture Tetrazolium Assay (MTT); type: cell-based; conditions: Homo sapiens; RS4;11 cells, 48 hours exposure
Procedure: The cytotoxicity studies were carried out on the RS4;11 leukaemia tumour line.
The cells are distributed onto microplates and exposed to the test compounds for 48 hours. The cell viability is then quantified by a colorimetric assay, the Microculture Tetrazolium Assay (Cancer Res., 1987, 47, 939-942).

Bcl-2 protein = Bcl-2 protein (histag-Bcl-2, UniProtKB P10415) (Homo sapiens (Human), UniProt P10415); assay: Inhibition of Bcl-2 by the fluorescence polarisation technique; type: binding; conditions: fluorescence polarisation test; method A, or method B where underlined (underlining not visible); read-out: IC50 (nM) Bcl-2 FP
Description: Inhibition of Bcl-2 by the fluorescence polarisation technique

Chain of Bcl-2 protein (P10415 whole entry): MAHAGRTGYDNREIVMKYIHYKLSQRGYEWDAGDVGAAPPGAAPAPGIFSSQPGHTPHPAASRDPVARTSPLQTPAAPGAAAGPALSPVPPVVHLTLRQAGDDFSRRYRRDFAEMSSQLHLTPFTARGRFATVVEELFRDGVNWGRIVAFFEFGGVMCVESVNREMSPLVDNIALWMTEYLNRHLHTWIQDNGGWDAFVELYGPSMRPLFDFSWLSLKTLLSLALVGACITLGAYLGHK

IC50 (Bcl-2 protein) [nM]	SMILES	IC50 [1] [nM]
5.6	COc1cc(-n2cc(C(=O)N(c3ccccc3)c3ccc(C)cc3)c3ccccc32)c(C(=O)N2Cc3ccccc3C[C@H]2CN2CCN(C)CC2)cc1O [Example 193, 1-{4-Hydroxy-5-methoxy-2-[(3S)-3-[(4-methylpiperazin-1-yl)methyl]-1,2,3,4-tetrahydroisoquinoline-2-carbonyl]phenyl}-N-(4-methylphenyl)-N-phenyl-1H-indole-3-carboxamide]	499
11.4	Cc1cc(C(=O)N(c2ccccc2)c2ccc(O)cc2)cn1-c1cc(O)ccc1C(=O)N1Cc2ccccc2C[C@H]1CN1CCN(C)CC1 [Example 17, 1-(5-Hydroxy-2-{[(3S)-3-[(4-methylpiperazin-1-yl)methyl]-3,4-dihydroisoquinolin-2(1H)-yl]carbonyl}phenyl)-N-(4-hydroxyphenyl)-5-methyl-N-phenyl-1H-pyrrole-3-carboxamide]	1010
5.4	Cc1cc(C(=O)N(c2ccc(O)cc2)c2ccc3[nH]ccc3c2)cn1-c1cc(Cl)ccc1C(=O)N1Cc2ccccc2C[C@H]1CN1CCN(C)CC1 [Example 86, 1-(5-Chloro-2-{[(3S)-3-[(4-methylpiperazin-1-yl)methyl]-3,4-dihydroisoquinolin-2(1H)-yl]carbonyl}phenyl)-N-(4-hydroxyphenyl)-N-(1H-indol-5-yl)-5-methyl-1H-pyrrole-3-carboxamide]	67.7
11.8	Cc1cc(C(=O)N(c2ccc(O)cc2)c2cccc(N3CCN(C)CC3)c2)cn1-c1cc2c(cc1C(=O)N1Cc3ccccc3C[C@H]1C)OCO2 [Example 112, N-(4-Hydroxyphenyl)-5-methyl-1-(6-{[(3R)-3-methyl-3,4-dihydroisoquinolin-2(1H)-yl]carbonyl}-1,3-benzodioxol-5-yl)-N-[3-(4-methylpiperazin-1-yl)phenyl]-1H-pyrrole-3-carboxamide hydrochloride]	281
3.9	Cc1ccc(N(C(=O)c2cc(C)n(-c3cc4c(cc3C(=O)N3Cc5ccccc5C[C@H]3CN3CCN(C)CC3)OCO4)c2)c2ccc(O)cc2)cc1 [Example 96, N-(4-Hydroxyphenyl)-5-methyl-N-(4-methylphenyl)-1-(6-{[(3S)-3-[(4-methylpiperazin-1-yl)methyl]-3,4-dihydroisoquinolin-2(1H)-yl]carbonyl}-1,3-benzodioxol-5-yl)-1H-pyrrole-3-carboxamide]	157
4.5	CN1CCN(C[C@@H]2Cc3ccccc3CN2C(=O)c2ccc(Cl)cc2-n2cc(C(=O)N(c3ccc(O)cc3)c3ccc4[nH]ccc4c3)c3ccccc32)CC1 [Example 72, 1-(5-Chloro-2-{[(3S)-3-[(4-methylpiperazin-1-yl)methyl]-3,4-dihydroisoquinolin-2(1H)-yl]carbonyl}phenyl)-N-(4-hydroxyphenyl)-N-(1H-indol-5-yl)-1H-indole-3-carboxamide]	43.4
12.5	CN1CCN(C[C@@H]2Cc3ccccc3CN2C(=O)c2cc3c(cc2-n2cc(C(=O)N(c4ccc(O)cc4)c4cccc(Oc5ccccc5)c4)c4ccccc42)OCO3)CC1 [Example 39, N-(4-Hydroxyphenyl)-1-(6-{[(3S)-3-[(4-methylpiperazin-1-yl)methyl]-3,4-dihydroisoquinolin-2(1H)-yl]carbonyl}-1,3-benzodioxol-5-yl)-N-(3-phenoxyphenyl)-1H-indole-3-carboxamide hydrochloride]	263
6.8	CN1CCN(C[C@@H]2Cc3ccccc3CN2C(=O)c2cc3c(cc2-n2cc(C(=O)N(c4ccc(O)cc4)c4ccc5occc5c4)c4ccccc42)OCO3)CC1 [Example 44, N-(1-Benzofuran-5-yl)-N-(4-hydroxyphenyl)-1-(6-{[(3S)-3-[(4-methylpiperazin-1-yl)methyl]-3,4-dihydroisoquinolin-2(1H)-yl]carbonyl}-1,3-benzodioxol-5-yl)-1H-indole-3-carboxamide]	164
11	CN(C)C[C@@H]1Cc2ccccc2CN1C(=O)c1cc2c(cc1-n1cc(C(=O)N(c3ccccc3)c3ccc(O)cc3)c3ccccc31)OCO2 [Example 180, 1-{6-[(3S)-3-[(Dimethylamino)methyl]-1,2,3,4-tetrahydroisoquinoline-2-carbonyl]-2H-1,3-benzodioxol-5-yl}-N-(4-hydroxyphenyl)-N-phenyl-1H-indole-3-carboxamide hydrochloride]	210
7.6	Cc1cc(C(=O)N(c2ccc(O)cc2)c2ccc3c(ccn3C)c2)cn1-c1cc2c(cc1C(=O)N1Cc3ccccc3C[C@H]1CN1CCOCC1)CCC2 [Example 117, N-(4-Hydroxyphenyl)-5-methyl-N-(1-methyl-1H-indol-5-yl)-1-(6-{[(3S)-3-(morpholin-4-ylmethyl)-3,4-dihydroisoquinolin-2(1H)-yl]carbonyl}-2,3-dihydro-1H-inden-5-yl)-1H-pyrrole-3-carboxamide hydrochloride]	193
7.4	Cc1cc(C(=O)N(c2ccc(O)cc2)c2ccc(F)cc2)cn1-c1cc(Br)ccc1C(=O)N1Cc2ccccc2C[C@H]1CN1CCN(C)CC1 [Example 50, 1-(5-Bromo-2-{[(3S)-3-[(4-methylpiperazin-1-yl)methyl]-3,4-dihydroisoquinolin-2(1H)-yl]carbonyl}phenyl)-N-(4-fluorophenyl)-N-(4-hydroxyphenyl)-5-methyl-1H-pyrrole-3-carboxamide]	301
146	Cc1cc(C(=O)N(c2ccccc2)c2ccc3[nH]ccc3c2)cn1-c1ccccc1C(=O)N1Cc2ccccc2C[C@H]1CN(C)C [Example 10, 1-(2-{[(3S)-3-[(Dimethylamino)methyl]-3,4-dihydroisoquinolin-2(1H)-yl]carbonyl}phenyl)-N-(1H-indol-5-yl)-5-methyl-N-phenyl-1H-pyrrole-3-carboxamide]	2220
16.7	Cc1cc(C(=O)N(c2ccc(O)cc2)c2cnc3c(ccn3C)c2)cn1-c1cc2c(cc1C(=O)N1Cc3ccccc3C[C@H]1CN1CCOCC1)OCO2 [Example 206, N-(4-Hydroxyphenyl)-5-methyl-N-(1-methyl-1H-pyrrolo[2,3-b]pyridin-5-yl)-1-(6-{[(3S)-3-(morpholin-4-ylmethyl)-3,4-dihydroisoquinolin-2(1H)-yl]-carbonyl}-1,3-benzodioxol-5-yl)-1H-pyrrole-3-carboxamide hydrochloride]	72.4
44.6	Cc1cc(C(=O)N(c2ccccc2)c2ccc(O)cc2)cn1-c1ccc(Br)cc1C(=O)N1Cc2ccccc2C[C@H]1CN1CCN(C)CC1 [Example 29, 1-(4-Bromo-2-{[(3S)-3-[(4-methylpiperazin-1-yl)methyl]-3,4-dihydroisoquinolin-2(1H)-yl]carbonyl}phenyl)-N-(4-hydroxyphenyl)-5-methyl-N-phenyl-1H-pyrrole-3-carboxamide]	1010
15	Cc1cc(C(=O)N(c2ccccc2)c2ccc(O)cc2)cn1-c1cc2c(cc1C(=O)N1Cc3ccccc3C[C@H]1CCN1CCOCC1)OCO2 [Example 120, N-(4-Hydroxyphenyl)-5-methyl-1-(6-{[(3S)-3-[2-(morpholin-4-yl)ethyl]-3,4-dihydroisoquinolin-2(1H)-yl]carbonyl}-1,3-benzodioxol-5-yl)-N-phenyl-1H-pyrrole-3-carboxamide hydrochloride]	367
